Laboratory results as given in US9624485B2, “Genetic incorporation of unnatural amino acids into proteins in mammalian cells” (The Scripps Research Institute, priority 2006, dated 2017).

Legend:
position 37 of GFP = test: Fidelity of unnatural amino acid incorporation by nano-RP LC/MS/MS and ESI TOF-MS; conditions: for wild type peptide signals in tandem MS of mutant GFP: nano-RP LC/MS/MS of tryptic fragments, T-REx CHO cells
Description: To further characterize GFP-pMpa, the mutant protein was expressed in T-REx™ CHO cells transiently transfected with both pSWAN-pMpaRS and pSWAN-GFP37TAG. The protein was purified using an anti-myc antibody agarose column and then separated by SDS-PAGE. The GFP-pMpa band from the SDS-PAGE gel was digested with trypsin and analyzed by nanoscale reversed-phase liquid chromatography/mass spectrometry/mass spectrometry (nano-RP LC/MS/MS). In parallel, wild type GFP was purified from cells transfected with pcDNA4-GFP and subjected to the same analysis.
Proteolysis of affinity purified proteins (performed for wild-type and pBpa samples) was carried out by overnight incubation of proteins at 37° C. with sequencing-grade modified trypsin (Promega) using a substrate/enzyme ratio of 10:1 (wt/wt) based on the estimated protein concentration in 100 mM triethylammonium bicarbonate buffer (pH 8.5). In-gel digestions (performed for pMpa, pAzpa, pApa, and pPpa samples) were performed according to a modified EMBL procedure (see the website for EMBL, Heidelberg, Germany, Bioanalytical Research Group). Briefly, gel slices were excised to approximately 1 mm×1 mm cubes, washed for 5 minutes with water, 15 minutes with acetonitrile, and dried in a vacuum centrifuge before being rehydrated at 0° C. for 30 minutes with 12.5 ng/μl of sequencing-grade modified trypsin in 50 mM triethylammonium bicarbonate buffer (pH 8.5). Excess buffer was removed and 20 μl of 50 mM triethylammonium bicarbonate buffer (pH 8.5) was added to the gel slices before incubating at 37° C. overnight. Peptides were extracted from the gel slices as described in the protocol.
Nano-RP LC/MS/MS was performed with an HPLC pump, autosampler (Agilent Technologies, Palo Alto, Calif.), and an LTQ Orbitrap hybrid mass spectrometer (ThermoElectron, San Jose, Calif.). Tryptic digests were loaded with a pressure bomb onto a 75 μm i.d. precolumn packed with 4 cm of 5-μm Monitor C18 particles (Column Engineering, Ontario, Calif.) at a flow rate of approximately 2 μl/min. The precolumn was then connected to the HPLC pump and after several minutes of washing with solvent A the analytical column with integrated emitter tip (360 μm O.D.×75 μm i.d; 10 cm of 5 μM C18, ˜5-μm tip) was connected in series. The chromatographic profile was from 100% solvent A (0.1% aqueous acetic acid) to 50% solvent B (0.1% acetic acid in acetonitrile) in 40 min; the flow rate through the analytical column was ca. 100 nl/min.
For data-dependent experiments, the mass spectrometer was programmed to first record a high-resolution Orbitrap scan then a full-scan ion trap spectrum (m/z 500-2,000). This was followed by 10 data-dependent MS/MS scans (relative collision energy=35%; 3-Da isolation window) triggered of the ion-trap scan and finally two targeted MS/MS scans. The first targeted MS/MS scan was set to isolate and fragment the doubly charged precursor ion of the predicted unnatural amino acid modified peptide
at m/z 752.3. The raw data were searched against the MSDB database using MASCOT (Matrixscience, London, UK) for protein identification and to find the scans containing the target peptides with the unnatural amino acids as variable modification. To estimate fidelity at Y*37 of GFP-pMpa, single ion chromatograms (doubly charged precursor ions at m/z 752.3 for the wt and 759.3 for pMpa) and selected ion chromatograms (y9, y11, and y12) were integrated using the Xcalibur software package (ThermoElectron, San Jose, Calif.).
Intact protein mass spectra were acquired on an automated LC/MS system (Waters, Milford, Mass.) consisting of a capillary LC with auto-sampler and a QTOF2 mass spectrometer. GFP-pMpa (0.1 mg/ml) was loaded onto a reversed-phase protein Captrap (Michrom Bioresources, Auburn, Calif.) for desalting with 0.1% acetic acid in water and eluted with 80% acetonitrile/0.1% acetic acid at 5 μl/min into the ESI source of the mass spectrometer. […]

[1] = system: amber codon in GFP37TAG in T-REx 293 cells; test: Amber suppression of GFP37TAG by BstRNACUA^Tyr/EcTyrRS variants, Western blot of full-length GFP; format: cell-based, human; conditions: 8 mM in media, 48 hours
Experimental: (§1) The ability of the six EcTyrRS variants together with BstRNACUA^Tyr to suppress the amber codon in GFP37TAG was then tested in the presence and absence of unnatural amino acids in the growth media. Transient transfection of cells with plasmids was carried out as described for wild type EcTyrRS. Six hours after transfection, the media were replaced by the fresh media containing 1 μg/ml tetracycline and supplemented with the corresponding unnatural amino acid (pMpa, 10 mM; pApa, 10 mM; pBpa, 1 mM; plpa, 8 mM; pAzpa, 5 mM; or pPpa, 1 mM). Cells were then grown 24 hours for T-REx™ CHO cell lines and 48 hours for T-REx™ 293 cell lines before harvesting. In both T-REx™ CHO and 293 cells, the expression of full length GFP37TAG was dependent upon the presence of unnatural amino acids in the growth media as indicated in FIG. 2 and FIG. 3. […]
(§2) For Western blot analysis, harvested cells were lysed in RIPA buffer (Upstate Biotechnology/Millipore) with a 1:100 dilution of protease inhibitor cocktail (Sigma). […] Chemiluminescence was then detected with PIERCE ECL Western Blotting substrate. For T-REx™ 293 cells, the membranes were probed with anti-His-HRP (Invitrogen™; 1:5000 dilution) and then detected with PIERCE ECL Western Blotting substrate.

T-REx 293 cells = test: Cellular toxicity of the unnatural amino acid in growth media; format: cell-based, human; conditions: 8 mM in media
[2] = system: amber codon in GFP37TAG in T-REx CHO cells; test: Amber suppression of GFP37TAG by BstRNACUA^Tyr/EcTyrRS variants, Western blot of full-length GFP; format: cell-based, Chinese hamster; conditions: 8 mM in media, 24 hours
Experimental: as §1, §2

**Q.** CC(=O)c1ccc(C[C@H](N)C(=O)O)cc1 [pApa, p-acetyl-L-phenylalanine] was tested. Which “wild type peptide signals in tandem MS of mutant GFP” value (shortened to “wild type peptide signals”) (position 37 of GFP) did it give?
**A.** Its value is “No wild type signals could be detected”.

**Q.** How did the “stability of the azido amino acid in mutant GFP seen by tandem MS” value (position 37 of GFP; mutant GFP containing pAzpa) turn out when [N-]=[N+]=Nc1ccc(C[C@H](N)C(=O)O)cc1 [pAzpa, p-azido-L-phenylalanine] was run?
**A.** Its value is “Most of pAzpa decays to pAmpa”.

**Q.** What about the “wild type peptide signals” value (position 37 of GFP) of the same compound?
**A.** Its value is “No wild type signals could be detected”.

**Q.** How did the “wild type peptide signals” value (position 37 of GFP) turn out when N[C@@H](Cc1ccc(C(=O)c2ccccc2)cc1)C(=O)O [pBpa, p-benzoyl-L-phenylalanine] was run?
**A.** Its value is “trace amount of the wild type peptide”.

**Q.** Which “wild type GFP signals in intact protein ESI TOF-MS” value (position 37 of GFP; affinity purified GFP-pMpa) does the source give for COc1ccc(C[C@H](N)C(=O)O)cc1 [pMpa, p-methoxy-L-phenylalanine] here?
**A.** The value was “No wild type GFP signals”.

**Q.** For C#CCOc1ccc(C[C@H](N)C(=O)O)cc1 [pPpa, p-propargyloxyphenylalanine], which “wild type peptide signals” value (position 37 of GFP) is on record?
**A.** The value was “No wild type signals could be detected”.

**Q.** N[C@@H](Cc1ccc(I)cc1)C(=O)O [plpa, p-iodo-L-phenylalanine] was tested. Which “expression of GFP containing the unnatural amino acid” value [1] did it give?
**A.** The value was “no GFP expression”.

**Q.** What about the “time until cells die (cellular toxicity)” value (T-REx 293 cells) of the same compound?
**A.** The value was 6 h.

**Q.** And the “expression level of GFP containing the unnatural amino acid” value [2]?
**A.** Its value is “low expression level”.
